Assay results: patent publication US20060063711A1, “Use of sglt homolog” (priority 2002, published 2006)

Columns and labels:
[1] = molecular target: T1, human SGLT homolog (hSGLTh) (Homo sapiens, UniProt Q2M3M2, I269M); test: α-methyl glucose uptake in CHO cells expressing hSGLTh; type: cell-based; conditions: for Uptake of α-Methyl Glucose (% based on Control Group): hSGLTh CHO cells, control = NMDG without NaCl
T1 construct: expressed in transfected cells; host or cells: CHO cells
T1 sequence (Q2M3M2 8-681 I269M limits assumed): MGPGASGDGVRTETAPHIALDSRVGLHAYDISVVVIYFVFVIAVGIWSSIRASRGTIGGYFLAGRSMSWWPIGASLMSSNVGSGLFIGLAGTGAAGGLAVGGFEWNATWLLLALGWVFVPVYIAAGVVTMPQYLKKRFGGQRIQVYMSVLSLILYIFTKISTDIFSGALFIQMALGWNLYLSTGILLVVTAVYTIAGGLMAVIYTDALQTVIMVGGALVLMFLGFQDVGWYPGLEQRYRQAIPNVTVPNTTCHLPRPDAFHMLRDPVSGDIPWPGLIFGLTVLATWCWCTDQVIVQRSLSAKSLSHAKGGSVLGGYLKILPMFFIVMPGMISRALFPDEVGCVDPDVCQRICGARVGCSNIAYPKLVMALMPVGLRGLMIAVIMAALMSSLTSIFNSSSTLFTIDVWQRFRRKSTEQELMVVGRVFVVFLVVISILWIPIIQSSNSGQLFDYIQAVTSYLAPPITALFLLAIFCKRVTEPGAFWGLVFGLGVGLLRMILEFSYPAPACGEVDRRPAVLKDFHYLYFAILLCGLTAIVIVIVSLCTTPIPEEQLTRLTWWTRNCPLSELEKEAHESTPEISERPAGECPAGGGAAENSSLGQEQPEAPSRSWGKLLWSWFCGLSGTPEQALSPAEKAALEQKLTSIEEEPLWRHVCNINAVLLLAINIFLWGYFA
Method: In accordance with the procedures described in Example 4 of WO 02/53738, the CHO cell lines expressing the human SGLT homolog (hSGLTh), mouse SGLT homolog (mSGLTh), rat SGLT homolog (rSGLTh), human SGLT1 (hSGLT1) and human SGLT2 (hSGLT2) were prepared, respectively, and used for experiments. The experimental uptake of α-methyl glucose, which is a glucose analog selectively taken up into the cells by SGLT, was carried out according to the method described in Am. J. Physiol., 270: G833-G843, 1996 and J. Clin. Invest., 93: 397-404, 1994. The cells were plated on 100 μl of DMEM containing 10% FBS charged in a 96-well plate in a cell density of 1×10^5 cells/well, followed by culturing overnight at 37° C. The cells were washed 3 times with 150 μl of a buffer solution (125 mM N-Methyl-D-Glucamine, 1.2 mM KH2PO4, 2.5 mM CaCl2, 1.2 mM MgSO4, 4 mM Glutamine, 10 mM HEPES (pH 7.2), 0.1 mg/ml BSA) and cultured for an hour in the same buffer solution to remove the remaining glucose. The buffer solution was removed and replaced with 90 μl of the same buffer solution or the buffer solution containing NaCl or NaCl+Phlorizin (Sigma) in place of N-Methyl-D-Glucamine (NMDG). After one-hour incubation with 10 μl of 1 mM α-methyl glucose (containing 0.02 μCi of [^14C]-α-Methyl Glucose (Amersham Pharmacia Biotech)) per well, the cells were washed 3 times with 200 μl of chilled PBS buffer. The radioactivity of ^14C taken up into the cells was counted with 100 μl of a liquid scintillator added per well.

hamster small intestine = test: glucose uptake in small intestine by the organ culture system; conditions: hamster jejunal slices, NaCl + 30 μM Phlorizin, 10 minutes at 37° C.
Method: The glucose uptake level was determined by the intestinal organ culture system in accordance with the procedures described in Peptides, 19: 1249-1253, 1998 and J. Agric. Food Chem., 48: 5618-5623, 2000. The carotid was cut in mice, rats, guinea pigs and hamsters under ether anesthesia to put them to death. The jejunal region was excised, mesenteric fats were removed, the tract was dissected and the contents were washed and cut in 1 cm length. The jejunal slices were washed 3 times with a buffer solution (125 mM N-Methyl-D-Glucamine (NMDG), 1.2 mM KH2PO4, 2.5 mM CaCl2, 1.2 mM MgSO4, 4 mM Glutamine, 10 mM HEPES (pH 7.2), 0.1 mg/ml BSA) and then transferred to a 48-well plate by one slice/well. […]. The jejunal slices were transferred to a mini-vial for liquid scintillation counting. After 500 μl of tissue solubilizer Solvable (Perkin Elmer LifeSciences) was added thereto, the mixture was treated at 50° C. for 2 hours to solubilize the tissues. After 5 ml of liquid scintillator Ultima Gold-XR (Perkin Elmer LifeSciences) was added, ^14C and ^3H taken up into the jejunal slices were counted. […]

Compound: O=C(CCc1ccc(O)cc1)c1c(O)cc(O)cc1O[C@@H]1O[C@H](CO)[C@@H](O)[C@H](O)[C@H]1O [phlorizin]
- Uptake of α-Methyl Glucose (% based on Control Group) ([1]; NaCl + 3 μM phlorizin): 570 ± 142%
- Uptake of α-Methyl Glucose (% based on Control Group) ([1]; NaCl + 100 μM phlorizin): 124 ± 19%
- resistance to phlorizin ([1]; human SGLT homolog compared with SGLT1 and SGLT2): more potent than in SGLT1 and SGLT2
- SGLT activity (α-methyl glucose uptake) resistance to phloridzin (hamster small intestine): strongly resistant
